In patent US10499643B2, “Synergistic herbicidal composition and the method of controlling the growth of undesired plants” (JIANGSU ROTAM CHEMISTRY CO., LTD, priority 2016, dated 2019):

Tested on: gramineous weeds, broadleaf weeds, sedge weeds
Assay: Post-emergence test: stem and leaf treatment of potted weeds, fresh weight inhibition rate, synergy by Colby's equation
Assay type: in vivo
Procedure: The assessment on the synergistic effect of mixing two or more herbicidal active ingredients is determined based on the Colby's equation as described in “Calculation Synergistic and Antagonistic Response of Herbicide Combinations (Weeds 15/1 (1967), S. R. Colby)”.
Use stem and leaf treatment for potted grown plant (NY/T 1155.4-2006): fill a plastic pot (6 cm height, 9 cm diameter) with a quantity of soil and sow 15 to 20 seeds of monocotyledonous weeds and dicotyledonous weeds in the plastic pot, cover it with 0.5 to 1 cm thick of fine soil and then put it in greenhouse for cultivation. When weeds grow to the 2 to 4 leave stage, conduct the stem and leaf spray treatment with 1 mL herbicidal solution on each pot and repeat four times for each treatment and leave some pots untreated as control group. Keep the treated pots in a greenhouse for cultivation and observe the growing status of target weeds periodically. Conduct the visual test on the target weeds regarding the damage symptoms and growth inhibition effect after 21 days. Weigh up the fresh weight above the ground or plant fresh weight and evaluate the toxicity of the herbicidal formulation on target weeds based on the fresh weight inhibition rate of the target.
Prepare the following three formulations according to specific weight percentages: 1. Pyroxasulfone; 2. […] After that, dilute above formulations with water to obtain diluted formulations.
Conduct visual assessment the damage symptom and growth inhibition status of target weeds after 21 days. Weigh up the fresh weight above the ground and calculate the inhibition rate of fresh weight (%).
The assessment on the synergistic effect of mixing two or more herbicidal active ingredients is determined based on the Colby's equation as described in “Calculation Synergistic and Antagonistic Response of Herbicide Combinations (Weeds 15/1(1967), S. R. Colby)”.
Wherein, X represents Fresh Weight Inhibition Rate of Pyroxasulfone when applied alone at certain application rate against target weeds;

Row | Compound | Herbicidal Activity % Experimental Data (Thifensulfuron methyl 1 g ai/ha alone) [%] | Herbicidal Activity % Experimental Data (Thifensulfuron methyl 5 g ai/ha alone) [%] | Herbicidal Activity % Experimental Data (Thifensulfuron methyl 10 g ai/ha alone) [%] | Herbicidal Activity % Experimental Data (Thifensulfuron methyl 25 g ai/ha alone) [%] | Herbicidal Activity % Experimental Data (Thifensulfuron methyl 50 g ai/ha alone) [%] | inhibition at 1 g/ha (post-emergence, Pyroxasulfone 1 g ai/ha alone, read-out: Herbicidal Activity % Experimental Data) [%] | inhibition at 5 g/ha (post-emergence, Pyroxasulfone 5 g ai/ha alone, read-out: Herbicidal Activity % Experimental Data) [%] | inhibition at 10 g/ha (post-emergence, Pyroxasulfone 10 g ai/ha alone, read-out: Herbicidal Activity % Experimental Data) [%] | inhibition at 25 g/ha (post-emergence, Pyroxasulfone 25 g ai/ha alone, read-out: Herbicidal Activity % Experimental Data) [%] | inhibition at 50 g/ha (post-emergence, Pyroxasulfone 50 g ai/ha alone, read-out: Herbicidal Activity % Experimental Data) [%]
1 | COC(=O)c1sccc1S(=O)(=O)NC(=O)Nc1nc(C)nc(OC)n1 [Thifensulfuron methyl] | 0 | 15.5 | 31.2 | 55.1 | 60.3 |  |  |  |  | 
2 | Cn1nc(C(F)(F)F)c(CS(=O)(=O)C2=NOC(C)(C)C2)c1OC(F)F [Pyroxasulfone, 3-[5-(difluoromethoxy)-1-methyl-3-(trifluoromethyl)pyrazol-4-ylmethylsulfonyl]-4,5-dihydro-5,5-dimethyl-1,2-oxazole] |  |  |  |  |  | 11 | 22 | 40 | 49 | 63
